According to patent publication US6043241A, “Ketoacid endothelin antagonists” (Warner-Lambert Company, priority 1998, dated 2000):
Where a SMILES comes first, the peptide text is derived from it. [ ]: non-standard residue; d: D form.

How the values were obtained:
[1] = test system: early cerebral vasospasm; conditions: in vivo; cited from earlier work
[2] = test system: pulmonary hypertension; conditions: rat hypoxia model; cited from earlier work
[3] = test system: chronic heart failure; conditions: patients with chronic heart failure; cited from earlier work
[4] = test system: ET-1-induced changes in gastric mucosal hemodynamics; conditions: in vivo; cited from earlier work
[5] = test system: acute renal ischemia; conditions: in vivo; cited from earlier work
[6] = molecular target: T1, human ETA R (Homo sapiens, UniProt P25101); test: Competition radioligand binding assay, [125I]-ET-1, Ltk- cells expressing human ETA R (HERBA A); conditions: Ltk- cell membranes, 40 pM [125I]-ET-1, 2 hours at 37° C
T1 construct: expressed in transfected cells; host or cells: Ltk- cells (membranes)
T1 sequence (P25101 21-427): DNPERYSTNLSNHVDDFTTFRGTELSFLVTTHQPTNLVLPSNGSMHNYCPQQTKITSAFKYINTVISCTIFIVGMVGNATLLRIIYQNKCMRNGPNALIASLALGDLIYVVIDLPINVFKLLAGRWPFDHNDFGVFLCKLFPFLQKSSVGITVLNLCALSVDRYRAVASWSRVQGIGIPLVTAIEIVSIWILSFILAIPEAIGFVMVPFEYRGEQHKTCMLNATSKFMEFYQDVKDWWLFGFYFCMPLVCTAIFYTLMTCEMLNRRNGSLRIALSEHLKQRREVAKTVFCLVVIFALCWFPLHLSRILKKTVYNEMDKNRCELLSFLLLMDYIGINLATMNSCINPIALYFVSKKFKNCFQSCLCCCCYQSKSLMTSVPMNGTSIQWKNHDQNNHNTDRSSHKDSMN
Experimental: (§1) The following cultured cells were used in binding experiments: CHO-K1 cells expressing recombinant human ETB R (HERBA B), or Ltk^- cells expressing human ETA R (HERBA A). […] Membranes were prepared from cultured cells by lysing cells in cold lysis buffer (5 mM HEPES, 2 mM EDTA, pH 7.4) and homogenizing with a Dounce "A" homogenizer. All of the homogenates were centrifuged at 30,000×g for 20 minutes at 4° C. Membrane pellets were resuspended in cold buffer containing 20 mM Tris, 2 mM EDTA, 200 μM Pefablock, 10 μM phosphoramidon, 10 μM leupeptin, and 1 μM pepstatin (pH 7.4) and frozen at -80° C. until use. Radioligand and competing ligands were prepared in binding buffer containing 20 mM Tris, 2 mM EDTA, and 0.1% BSA.
(§2) The assay was terminated by filtration over Whatman GF/B filters that were presoaked with 50 mM Tris, pH 7.4, containing 0.2% BSA and 100 μM bacitracin. […] binding was defined as total binding minus nonspecific binding.

[7] = molecular target: T2, human ETB R (Homo sapiens, UniProt P24530); test: Competition radioligand binding assay, [125I]-ET-1, CHO-K1 cells expressing recombinant human ETB R (HERBA B); conditions: CHO-K1 cell membranes, 40 pM [125I]-ET-1, 2 hours at 37° C
T2 construct: expressed in transfected cells; host or cells: CHO-K1 cells (membranes)
T2 sequence (P24530 27-442): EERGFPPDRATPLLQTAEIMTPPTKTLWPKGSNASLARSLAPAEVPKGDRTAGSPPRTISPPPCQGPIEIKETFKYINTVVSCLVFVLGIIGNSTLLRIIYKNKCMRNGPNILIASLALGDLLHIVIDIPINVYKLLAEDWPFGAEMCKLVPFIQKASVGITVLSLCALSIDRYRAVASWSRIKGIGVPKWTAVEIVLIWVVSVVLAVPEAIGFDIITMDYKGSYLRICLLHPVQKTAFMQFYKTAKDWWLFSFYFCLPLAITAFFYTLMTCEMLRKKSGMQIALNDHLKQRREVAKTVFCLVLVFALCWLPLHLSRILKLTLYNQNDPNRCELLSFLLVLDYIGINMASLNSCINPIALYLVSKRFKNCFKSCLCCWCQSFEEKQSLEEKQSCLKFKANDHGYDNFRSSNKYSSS
Experimental: as §1, §2

[8] = test system: prostate smooth muscle; conditions: in vivo; cited from earlier work
[9] = test system: middle cerebral artery occlusion; conditions: cats, IV; cited from earlier work
[10] = test system: early cerebral vasospasm; conditions: rat SAH; cited from earlier work
[11] = test system: neointima formation; conditions: rats, carotid artery balloon angioplasty; cited from earlier work
[12] = test system: basilar artery vasoconstriction; conditions: canine two-hemorrhage model of SAH, after 7 days; cited from earlier work
[13] = test system: liver; conditions: cited from earlier work
[14] = test system: small intestinal mucosa; conditions: rats, local intra-arterial; cited from earlier work
[15] = test system: isolated cerebral arterioles; conditions: cited from earlier work

## CC(C)C[C@@H]1NC(=O)[C@@H](C(C)C)NC(=O)[C@@H]2CCCN2C(=O)[C@@H](CC(=O)O)NC(=O)[C@@H](Cc2c[nH]c3ccccc23)NC1=O [BQ-123] (cyclo(L[dW][dD]P[dV]))
[1]
  early cerebral vasospasm following SAH: prevent early cerebral vasospasm
[2]
  increase in pulmonary vascular resistance and pulmonary arterial pressure: lowering the increase in pulmonary vascular resistance and pulmonary arterial pressure

## COc1ccccc1Oc1c(NS(=O)(=O)c2ccc(C(C)(C)C)cc2)nc(-c2ncccn2)nc1OCCO [Bosentan]
[3]
  cardiac performance: improve cardiac performance
[4]
  ET-1-induced changes in gastric mucosal hemodynamics and ET-1-induced gastric ulceration: antagonist toward the ET-1-induced changes in gastric mucosal hemodynamics as well as on ET-1-induced gastric ulceration
[2]
  increase in pulmonary vascular resistance and pulmonary arterial pressure: lowering the increase in pulmonary vascular resistance and pulmonary arterial pressure
[5]
  efficacy in models of acute renal ischemia: effective in models of acute renal ischemia

## COc1ccc(C(=O)/C(Cc2cc(OC)c(OC)c(OC)c2)=C(/C(=O)O)c2ccc3c(c2)OCO3)cc1 [Example 1, (E)-2-Benzo[1,3]dioxol-5-yl-4-(4-methoxy-phenyl)-4-oxo-3-(3,4,5-trimethoxy-benzyl)-but-2-enoic acid]
[6]
  IC50: 65 nM
[7]
  IC50: > 2500 nM

## COc1ccc(/C(C(=O)O)=C(/Cc2ccc3c(c2)OCO3)C(=O)c2cc(OC)c(OC)c(OC)c2)cc1 [Example 2, (E)-3-Benzo[1,3]dioxol-5-ylmethyl-2-(4-methoxy-phenyl)-4-oxo-4-(3,4,5-trimethoxy-phenyl)-but-2-enoic acid]
[6]
  IC50: 58 nM
[7]
  IC50: 10000 nM

## CCOc1ccc(C(=O)/C(Cc2cc(OC)c(OC)c(OC)c2)=C(/C(=O)O)c2cc(OC)c3c(c2)OCO3)cc1C [Example 3]
[6]
  IC50: 70 nM
[7]
  IC50: > 2500 nM

## COc1ccc(C2(O)OC(=O)C(c3ccc4c(c3)OCO4)=C2Cc2ccccc2)cc1 (stereo not drawn) [PD 155080]
[8]
  prostate smooth muscle function: mediate prostate smooth muscle function in vivo

## COc1ccc(C2(O)OC(=O)C(c3ccc4c(c3)OCO4)=C2Cc2cc(OC)c(OC)c(OC)c2)cc1 (stereo not drawn) [PD 156707]
[9]
  volume of ischemic damage in the cerebral hemisphere: significantly reduced
[2]
  increase in pulmonary vascular resistance and pulmonary arterial pressure: lowering the increase in pulmonary vascular resistance and pulmonary arterial pressure

## COc1cccc(Oc2c(NS(=O)(=O)c3ccc(C(C)(C)C)cc3)ncnc2OCCO)c1 [Ro 46-2005]
[10]
  systemic arterial blood pressure: no significant effect on systemic arterial blood pressure

## CCCOc1ccc2c(c1)[C@@H](c1ccc(OC)cc1OCC(=O)O)[C@H](C(=O)O)[C@H]2c1ccc2c(c1)OCO2 [SB 209670]
[11]
  neointima formation: ameliorate neointima formation

## FR 139317
[12]
  vasoconstriction of the basilar artery: significantly inhibited the vasoconstriction of the basilar artery

## endothelin
[13]
  hepatic vasculature vasoconstriction and hepatic glucose output: sustained vasoconstriction of the hepatic vasculature and a significant increase in hepatic glucose output
[14]
  small intestinal mucosal damage: induce small intestinal mucosal damage in rats in a dose-dependent manner
[15]
  vasoconstrictor action on isolated cerebral arterioles: potent vasoconstrictor action
